According to patent US20110230471A1, “BENZONAPHTYRIDINE COMPOUNDS AS INHIBITORS OF AUTOTAXIN” (MERCK PATENT GESELLSCHAFT MIT BESCHRANKTER HAFTUNG, priority 2008, published 2011):

target: T1, recombinant autotaxin (Homo sapiens, UniProt Q13822); assay: Autotaxin test (enzyme test), Amplex Red; assay type: biochemical; conditions: Autotaxin inhibition (enzyme test), TABLE 2 (B compounds); substrate LPC 75 μM
T1 construct: made in house; host or cells: Hi5 insect cells (baculovirus)
Protocol: The autotaxin activity is measured indirectly using Amplex Red reagent. Amplex Red is measured here as fluorogenic indicator for the H2O2 formed. In detail, autotaxin converts the substrate lysophosphatidylcholine (LPC) into phosphocholine and lysophosphatidylic acid (LPA). After this reaction, the phosphocholine is reacted with alkaline phosphatase to give inorganic phosphate and choline. In the next step, choline is oxidised by choline oxidase to give betaine, with formation of H2O2. H2O2 reacts with Amplex Red reagent in the presence of peroxidase (horseradish peroxidase) in a 1:1 stoichiometry and forms the highly fluorescent resorufin. The fluorescence is measured in a reaction-dependent kinetic mode in order that fluorescent signals from possible other fluorescent substances which are not involved in the reaction can be corrected out.
1.5 μl of a standard solution or of the test substances (substances with the name A(n))in individual concentrations dissolved in 20 mM Hepes pH 7.2 with a maximum of 7.7% of DMSO are pre-incubated together with 10 μl (16 ng) of highly purified recombinant autotaxin in a black microtitre plate provided with 384 wells at 22° C. for 30 min. The reaction is then initiated by addition of 5 μl of L-α-lysophosphatidylcholine (LPC), where the final concentration of LPC is 75 μM. The mixture is incubated at 37° C. for 90 min. After the incubation, Amplex Red reagent, peroxidase (horseradish peroxidase) and choline oxidase is added, and the fluorescence is immediately measured at 612 nm with excitation of 485 nm in a “Tecan Ultra multimode” reader. The activity of autotaxin is calculated indirectly via detection of the H2O2 formed.
• Microtitre plate: PS microplate, 384 wells, small volume, black Corning, Cat#3677 • Protein: recombinant autotaxin (Baculovirale Hi5 Expression) • Substrate: L-α-lysophosphatidylcholine (chicken egg)); Avanti Polar Lipids # 830071 P • Standard: C14 LPA, Avanti Polar Lipids, Cat# 857120P • Detection reagent: Amplex Red reagent; Invitrogen # A12222; dissolved in 1.923 ml of DMSO peroxidase type VI-A (horseradish) from Sigma # P6782; dissolved in 7.45 ml of test buffer, choline oxidase; Sigma # C5896; dissolved in 2.47 ml of test buffer • Detection reagent mix: 1:100 dilution of Amplex Red reagent in test buffer • Test buffer: 200 mM Tris HCl, Merck, Cat # 1.08219, pH 7.9, 0.1% of BSA, lipid-free, Roche Cat#775835

`COc1ccc(Cl)cc1-c1nc(CN2CCc3nc4ccccc4c(C(=O)NC4CCN(C)CC4)c3C2)no1` [Compound B20, N-(1-Methylpiperidin-4-yl)-2-[5-(5-chloro-2-methoxyphenyl)-1,2,4-oxadiazol-3-ylmethyl]-1,2,3,4-tetrahydrobenzo[b][1,6]naphthyridine-10-carboxamide] and `COc1ccc(Cl)cc1-c1nnc(CN2CCc3nc4ccccc4c(C(=O)NC4CCN(C)CC4)c3C2)o1` [Compound B33, N-(1-Methylpiperidin-4-yl)-2-[5-(5-chloro-2-methoxyphenyl)-1,3,4-oxadiazol-2-ylmethyl]-1,2,3,4-tetrahydrobenzo[b][1,6]naphthyridine-10-carboxamide] cannot be ordered by IC50: > 1000 nM for the first, > 1000 nM for the second.

`O=C(CN1CCc2nc3ccccc3c(C(=O)N3CCN(CCO)CC3)c2C1)Nc1cccc(-c2ccccc2)c1` [Compound B21, N-Biphenyl-3-yl-2-{10-[4-(2-hydroxyethyl)piperazine-1-carbonyl]-3,4-dihydro-1H-benzo[b][1,6]naphthyridin-2-yl}acetamide] and `COc1c(F)cc(-c2ccc(N)cc2)cc1NC(=O)CN1CCc2nc3ccccc3c(C(=O)N3CCOCC3)c2C1` [Compound B35, N-(4′-Amino-5-fluoro-4-methoxybiphenyl-3-yl)-2-[10-(morpholine-4-carbonyl)-3,4-dihydro-1H-benzo[b][1,6]naphthyridin-2-yl]acetamide] cannot be ordered by IC50: > 1000 nM for the first, > 1000 nM for the second.

Compared with `COc1ccc(Cl)cc1NC(=O)CN1CCc2nc3ccccc3c(C(=O)Nc3ccc4[nH]nnc4c3)c2C1` [Compound B22, N-(1H-Benzotriazol-5-yl)-2-[(5-chloro-2-methoxyphenylcarbamoyl)methyl]-1,2,3,4-tetrahydrobenzo[b][1,6]naphthyridine-10-carboxamide], `COc1ccc(Cl)cc1NC(=O)CN1CCc2nc3ccccc3c(C(=O)NCCF)c2C1` [Compound B42, N-(2-Fluoroethyl)-2-[(5-chloro-2-methoxyphenylcarbamoyl)methyl]-1,2,3,4-tetrahydrobenzo[b][1,6]naphthyridine-10-carboxamide] is higher in IC50: 100 to 1000 nM for the first, > 1000 nM for the second.

`COc1c(F)cc(Br)cc1NC(=O)CN1CCc2nc3ccccc3c(C(=O)N3CCOCC3)c2C1` [Compound B24, N-(5-Bromo-3-fluoro-2-methoxyphenyl)-2-[10-(morpholine-4-carbonyl)-3,4-dihydro-1H-benzo[b][1,6]naphthyridin-2-yl]acetamide] and `COc1ccc(Cl)cc1NC(=O)CN1CCc2nc3ccccc3c(C(=O)NC3CCOCC3)c2C1` [Compound B43, N-(Tetrahydropyran-4-yl)-2-[(5-chloro-2-methoxyphenylcarbamoyl)methyl]-1,2,3,4-tetrahydrobenzo[b][1,6]naphthyridine-10-carboxamide] fall in the same range of IC50: 100 to 1000 nM for the first, 100 to 1000 nM for the second.

`COc1ccc(Cl)cc1-c1nnc(CN2CCc3nc4ccccc4c(C(=O)NCCN(C)C)c3C2)o1` [Compound B29, N-(2-Dimethylaminoethyl)-2-[5-(5-chloro-2-methoxyphenyl)-1,3,4-oxadiazol-2-ylmethyl]-1,2,3,4-tetrahydrobenzo[b][1,6]naphthyridine-10-carboxamide] and `COCCNC(=O)c1c2c(nc3ccccc13)CCN(Cc1nnc(-c3cc(Cl)ccc3OC)o1)C2` [Compound B31, N-(2-Methoxyethyl)-2-[5-(5-chloro-2-methoxyphenyl)-1,3,4-oxadiazol-2-yl-methyl]-1,2,3,4-tetrahydrobenzo[b][1,6]naphthyridine-10-carboxamide] cannot be ordered by IC50: > 1000 nM for the first, > 1000 nM for the second.

`COc1ccc(Cl)cc1-c1nnc(CN2CCc3nc4ccccc4c(C(=O)NCC[N+](C)(C)Cc4nnc(-c5cc(Cl)ccc5OC)o4)c3C2)o1` [Compound B30, [5-(5-Chloro-2-methoxyphenyl)-1,3,4-oxadiazol-2-ylmethyl]-[2-({2-[5-(5-chloro-2-methoxyphenyl)-1,3,4-oxadiazol-2-ylmethyl]-1,2,3,4-tetrahydrobenzo[b][1,6]naphthyridine-10-carbonyl}amino)ethyl]dimethylammonium] and `CCNC(=O)c1c2c(nc3ccccc13)CCN(Cc1nnc(-c3cc(Cl)ccc3OC)o1)C2` [Compound B32, N-Ethyl-2-[5-(5-chloro-2-methoxyphenyl)-1,3,4-oxadiazol-2-ylmethyl]-1,2,3,4-tetrahydrobenzo[b][1,6]naphthyridine-10-carboxamide] cannot be ordered by IC50: > 1000 nM for the first, > 1000 nM for the second.

`CN1CCC(NC(=O)c2c3c(nc4ccccc24)CCN(CCC(=O)Nc2cc(Cl)ccc2N)C3)CC1` [Compound B37] and `COc1ccc(Cl)cc1/C=C/C(=O)N1CCc2nc3ccccc3c(C(=O)NC3CCN(C)CC3)c2C1` [Compound B40, N-(1-Methylpiperidin-4-yl)-2-[(E)-3-(5-chloro-2-methoxyphenyl)acryloyl]-1,2,3,4-tetrahydrobenzo[b][1,6]naphthyridine-10-carboxamide] cannot be ordered by IC50: > 1000 nM for the first, > 1000 nM for the second.

First: COc1ccc(Cl)cc1NC(=O)CN1CCc2nc3ccccc3c(C(=O)NC3CCCNC3=O)c2C1 (stereo not drawn) [Compound B47, N-(2-Oxopiperidin-3-yl)-2-[(5-chloro-2-methoxyphenylcarbamoyl)methyl]-1,2,3,4-tetrahydrobenzo[b][1,6]naphthyridine-10-carboxamide]
Second: COc1ccc(Cl)cc1NC(=O)CN1CCc2nc3ccccc3c(C(=O)NC3CCCNC3)c2C1 (stereo not drawn) [Compound B53, N-Piperidin-3-yl-2-[(5-chloro-2-methoxyphenylcarbamoyl)methyl]-1,2,3,4-tetrahydrobenzo[b][1,6]naphthyridine-10-carboxamide]
The IC50 of the first is lower: 100 to 1000 nM for the first, > 1000 nM for the second. The first is the more potent here.

`O=C(c1c2c(nc3ccccc13)CCN(Cc1ccnc(Cl)c1)C2)N1CCOCC1` [Compound B52, [2-(2-Chloropyridin-4-ylmethyl)-1,2,3,4-tetrahydrobenzo[b][1,6]naphthyridin-10-yl]morpholin-4-ylmethanone] and `CN1CCC(NC(=O)c2c3c(nc4ccccc24)CCN(Cc2ccc4c(Cl)cc(Cl)c(O)c4n2)C3)CC1` [Compound B57, N-(1-Methylpiperidin-4-yl)-2-(5,7-dichloro-8-hydroxyquinolin-2-ylmethyl)-1,2,3,4-tetrahydrobenzo[b][1,6]naphthyridine-10-carboxamide] cannot be ordered by IC50: > 1000 nM for the first, > 1000 nM for the second.
